Consider ten compounds from ChEMBL document CHEMBL1201862, “PubChem BioAssay data set” (2004).

Test systems include RPMI-8226; A549; HT-29; Malme-3M; NCI-H522; HOP-92; IGROV-1; 786-0; LOX IMVI; A498; UACC-257; SK-MEL-2; OVCAR-3; Hs-578T; DU-145; MCF7; OVCAR-5; MOLT-4; HCC 2998; KM12.
Common to all, as to test: NCI-60 cell line screen, 48 h

The structures appear in SMILES notation.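 Briefly, cells in 96-well plates were exposed to five compound concentrations for 48 h, and endpoints were estimated by linear interpolation. The concentration for 50% growth inhibition is given as GI50.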 Active and inactive are the calls of the source. Cut-off read from the data, not from the text of the source: active = GI50 up to about 1.1 µM and inactive = higher.

With `Oc1cc(-n2cccn2)c(O)cc1-n1cccn1`, the GI50 in the assay on RPMI-8226 was 15.2 µM (inactive); with A549, > 86.9 µM (inactive); in the assay on HT-29 it was 23 µM (inactive); in the assay with Malme-3M it was 30.7 µM (inactive); with NCI-H522, 11.5 µM (inactive); in the assay on HOP-92 it was 21 µM (inactive). Moreover, the GI50 in the assay with IGROV-1 was 54.6 µM (inactive); with 786-0 it was 16.6 µM (inactive); with LOX IMVI, 21 µM (inactive); with A498, > 72.8 µM (inactive); in the assay with UACC-257 it was 32.1 µM (inactive); in the assay with SK-MEL-2, > 88.5 µM (inactive). For the same compound, the GI50 is 19.1 µM (inactive) with OVCAR-3; > 100 µM (inactive) in the assay on Hs-578T; > 48.2 µM (inactive) with DU-145; 19.1 µM (inactive) in the assay on MCF7; 53.1 µM (inactive) in the assay with OVCAR-5; 9.55 µM (inactive) with MOLT-4. Moreover, the GI50 is > 100 µM (inactive) in the assay with HCC 2998 and 57.7 µM (inactive) with KM12.

Take `CCOC(=O)n1c2ccccc2c2c(O)c(OC)c3c(c21)C(=O)NC3=O`: the GI50 is 58.5 µM (inactive) in the assay on RPMI-8226; 38.5 µM (inactive) in the assay with A549; 24 µM (inactive) in the assay on HT-29; 35.9 µM (inactive) in the assay with Malme-3M; 22.6 µM (inactive) with NCI-H522; 76 µM (inactive) with HOP-92. Also, the GI50 in the assay with IGROV-1 is 14.7 µM (inactive); in the assay with 786-0 it was 19.5 µM (inactive); in the assay on LOX IMVI it was 15.2 µM (inactive); in the assay on A498, 78.7 µM (inactive); with UACC-257, 45.8 µM (inactive); in the assay with SK-MEL-2, > 100 µM (inactive). Also, the GI50 in the assay on OVCAR-3 is 22.2 µM (inactive); in the assay on Hs-578T, 59.4 µM (inactive); in the assay on DU-145, 30 µM (inactive); in the assay on MCF7, 54.3 µM (inactive); in the assay with OVCAR-5, 50.9 µM (inactive); in the assay on MOLT-4, 19.5 µM (inactive). Further, the GI50 in the assay with HCC 2998 is 12.2 µM (inactive); in the assay with KM12 it was 50.8 µM (inactive).

As for `CCOc1cc2c(cc1O)/C(=N\N)C[C@@H]1[C@@H]2CC[C@]2(C)[C@@H](O)CC[C@@H]12`, the GI50 in the assay on RPMI-8226 was 4.48 µM (inactive); in the assay on A549 it was 8.75 µM (inactive); in the assay with HT-29, 9.53 µM (inactive); in the assay with Malme-3M, 1.54 µM (inactive); with NCI-H522, 2.8 µM (inactive); in the assay on HOP-92, 13.2 µM (inactive). In addition, the GI50 was 6.97 µM (inactive) in the assay on IGROV-1; 4.48 µM (inactive) with 786-0; 4.12 µM (inactive) in the assay with LOX IMVI; 12.4 µM (inactive) with A498; 7.43 µM (inactive) in the assay with UACC-257; 4.38 µM (inactive) in the assay with SK-MEL-2. The GI50 was 2.32 µM (inactive) with OVCAR-3; 3.06 µM (inactive) in the assay with Hs-578T; 8.73 µM (inactive) in the assay with DU-145; 2.68 µM (inactive) in the assay with MCF7; 36.4 µM (inactive) in the assay with OVCAR-5; 4.27 µM (inactive) in the assay with MOLT-4. Besides, the GI50 with HCC 2998 was 2.07 µM (inactive); in the assay on KM12, 4.71 µM (inactive).

Turning to `CN(C)CCCNc1ccc2nnn3c4ccc([N+](=O)[O-])cc4c(=O)c1c23`, the GI50 was 0.946 µM (active) in the assay with RPMI-8226; 0.721 µM (active) in the assay on A549; 0.55 µM (active) with HT-29; 3.56 µM (inactive) with Malme-3M; 1.63 µM (inactive) with NCI-H522; 1.57 µM (inactive) in the assay on HOP-92. The GI50 in the assay on IGROV-1 was 1.95 µM (inactive); in the assay on 786-0, 0.624 µM (active); with LOX IMVI it was 0.641 µM (active); with A498, 2.26 µM (inactive); in the assay on UACC-257 it was 3.4 µM (inactive); in the assay with SK-MEL-2, 3.12 µM (inactive). The GI50 in the assay with OVCAR-3 is 2.55 µM (inactive); in the assay on Hs-578T it was 3.81 µM (inactive); with DU-145 it was 1.71 µM (inactive); in the assay with MCF7, 1.74 µM (inactive); with OVCAR-5 it was 1.99 µM (inactive); with MOLT-4 it was 0.21 µM (active). Moreover, the GI50 in the assay on HCC 2998 was 2.23 µM (inactive); with KM12, 0.986 µM (active).

In the case of `COc1ccc2[nH]c3c4c(ccc3c2c1)C(=O)C=CC4=O`, the GI50 was 2.08 µM (inactive) in the assay on RPMI-8226; 28.6 µM (inactive) in the assay with A549; 20.3 µM (inactive) with HT-29; 7.73 µM (inactive) with Malme-3M; 1.74 µM (inactive) in the assay with NCI-H522; 3.34 µM (inactive) with HOP-92. Also, the GI50 in the assay with IGROV-1 is 16 µM (inactive); in the assay on 786-0, 11.4 µM (inactive); with LOX IMVI, 9.31 µM (inactive); in the assay on A498, 31.3 µM (inactive); in the assay on UACC-257, 10 µM (inactive); with SK-MEL-2 it was 13.8 µM (inactive). The GI50 in the assay with OVCAR-3 was 8.36 µM (inactive); with Hs-578T it was 24.3 µM (inactive); in the assay on DU-145, 34.8 µM (inactive); in the assay on MCF7, 10.8 µM (inactive); in the assay with OVCAR-5 it was 20.4 µM (inactive); with MOLT-4, 0.448 µM (active). In addition, the GI50 is 22.5 µM (inactive) in the assay with HCC 2998 and 21.6 µM (inactive) in the assay with KM12.

Consider `CC1(C)N=c2c(ncn2Cc2ccccc2)=C(C(N)=O)N1`, for which the GI50 in the assay with RPMI-8226, in the assay with A549, with HT-29, with Malme-3M, with NCI-H522 and in the assay with HOP-92 was > 100 µM (inactive) throughout. The GI50 in the assay on IGROV-1, with 786-0, in the assay on LOX IMVI, in the assay with A498, in the assay on UACC-257 and in the assay on SK-MEL-2 was > 100 µM (inactive) in each case. The GI50 in the assay on OVCAR-3, in the assay on Hs-578T, in the assay on DU-145, in the assay with MCF7, in the assay on OVCAR-5 and in the assay with HCC 2998 was > 100 µM (inactive) each time. For the same compound, in the assay on KM12, the GI50 was > 100 µM (inactive).

For the compound `O=C(CCC1OCCO1)Nc1cc(NCc2ccccc2)ccc1OCc1ccccc1`, the GI50 in the assay on RPMI-8226 is 20.1 µM (inactive); in the assay on A549, 30.6 µM (inactive); with HT-29, 27.7 µM (inactive); in the assay with Malme-3M, 20.6 µM (inactive); in the assay with NCI-H522 it was 23.7 µM (inactive); in the assay on HOP-92 it was 17.8 µM (inactive). In addition, the GI50 with IGROV-1 is 41.6 µM (inactive); in the assay on 786-0 it was > 100 µM (inactive); in the assay with LOX IMVI, 33.7 µM (inactive); in the assay on A498, 30.5 µM (inactive); with UACC-257, 20.2 µM (inactive); in the assay on SK-MEL-2, 21 µM (inactive). For the same compound, the GI50 is 34.3 µM (inactive) in the assay with Hs-578T; 50.5 µM (inactive) in the assay on DU-145; 33.6 µM (inactive) in the assay on MCF7; 46.9 µM (inactive) in the assay with OVCAR-5; 20.5 µM (inactive) in the assay on MOLT-4; 33 µM (inactive) in the assay with HCC 2998. Besides, the GI50 in the assay with KM12 was 30.1 µM (inactive).

`NC(=O)CC(N)C(=O)NC(Cc1ccccc1)C(=O)NC(Cc1ccccc1)NC(=O)C(Cc1c[nH]c2ccccc12)C(=O)O` (stereo not drawn): the GI50 in the assay with RPMI-8226, in the assay with A549, in the assay with HT-29, in the assay with Malme-3M, in the assay with NCI-H522 and with HOP-92 was > 100 µM (inactive) each time. Besides, the GI50 in the assay with IGROV-1, with 786-0, with LOX IMVI, in the assay with A498, in the assay on UACC-257 and with SK-MEL-2 was > 100 µM (inactive) each time. The GI50 with OVCAR-3, in the assay with Hs-578T, in the assay on DU-145, in the assay on MCF7, with OVCAR-5 and in the assay on MOLT-4 was > 100 µM (inactive) in each case. For the same compound, the GI50 in the assay with HCC 2998 and with KM12 was > 100 µM (inactive) throughout.

Consider `O=C(/C=C/NC(=O)OCc1ccccc1)OCc1ccccc1`, for which the GI50 in the assay on RPMI-8226 is > 100 µM (inactive); with A549, > 100 µM (inactive); with HT-29, > 100 µM (inactive); in the assay with Malme-3M it was > 100 µM (inactive); in the assay with NCI-H522, > 100 µM (inactive); in the assay with HOP-92, 41.6 µM (inactive). Besides, the GI50 in the assay with IGROV-1, in the assay on 786-0, with LOX IMVI, with A498, with UACC-257 and with SK-MEL-2 was > 100 µM (inactive) in each case. Besides, the GI50 in the assay with OVCAR-3, in the assay with Hs-578T, in the assay with DU-145, in the assay with MCF7, with OVCAR-5 and in the assay with MOLT-4 was > 100 µM (inactive) throughout. In addition, the GI50 with HCC 2998 and in the assay with KM12 was > 100 µM (inactive) in each case.

With `Cn1cnc(N2CCCC2)c(C#N)c1=S`, the GI50 in the assay on RPMI-8226 is > 100 µM (inactive); in the assay with A549, > 100 µM (inactive); in the assay with HT-29, > 100 µM (inactive); in the assay on Malme-3M it was > 100 µM (inactive); with NCI-H522 it was > 100 µM (inactive); in the assay on HOP-92, 76.2 µM (inactive). The GI50 in the assay with IGROV-1, with 786-0, with LOX IMVI, in the assay on A498, in the assay with UACC-257 and with SK-MEL-2 was > 100 µM (inactive) in each case. For the same compound, the GI50 with OVCAR-3, in the assay with Hs-578T, in the assay on DU-145, in the assay on MCF7, with OVCAR-5 and in the assay on MOLT-4 was > 100 µM (inactive) each time. Also, the GI50 in the assay on HCC 2998 and with KM12 was > 100 µM (inactive) throughout.
